Measured values from patent US20230322723A1, “COMPOUNDS FOR SUPPRESSING EGFR MUTANT CANCER AND PHARMACEUTICAL USE THEREOF” (J2H BIOTECH INC., priority 2020, published 2023).

Experiments:
[1] = target: T1, EGFR^L858R+T790M+C797S (Homo sapiens, UniProt P00533, C797S/L858R/T790M); assay: EGFR protein degradation test (Western blot) in Ba/F3 cells expressing mutant EGFR L858R+T790M+C797S (LTC); assay type: cell-based; conditions: compounds at 0.1 μM and 1 μM, 24 hours, Western blot with EGFR antibody
T1 construct: expressed in transfected cells; host or cells: Ba/F3
Outline: (§1)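 EGFR protein level was measured by Western blot on 30 μg lysate, bands quantified by imager. Lysates came from Ba/F3 lines carrying normal, LTC or DTC mutant EGFR, exposed 24 h to compound at 0.1 and 1 μM.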

[2] = Pharmacokinetic evaluation after single oral administration to ICR mice; assay type: in vivo; conditions: for half-life / AUC(0-t): mouse, ICR mice, single oral dose 5 mg/kg, plasma; for AUC(0-t): read-out: AUC0-24
Description: Pharmacokinetic tests for the compounds of the present invention were conducted as below. After a single oral administration of the compound of the present invention to ICR mice, the concentration of the compound over time was followed up and analyzed.
The compound of the present invention was suspended in 10% DMSO/90% (30% HPbCD aqueous solution) and orally administered to mice at a dose of 5 mg/kg. Blood was collected at a fixed time and plasma was separated. Drug analysis was performed using HPLC (XBridge column C18, Waters, mobile phase 0.1% formic acid:acetonitrile (30:70, %/%)) and MS/MS (ESI positive, MRM). Mouse blood plasma and each commercially available standard solution were mixed at a ratio of 9:1 to prepare and calibrate at concentrations of […] 5,000 ng/mL. In addition, the preparation of QC samples was prepared by mixing the mouse blood plasma and the standard solution for QC at a ratio of 9:1, and prepared to be concentrations of 100, 750 and 2,500 ng/mL. 100 μL of the plasma sample was transferred to a centrifugation tube, and 10 μL of the internal standard solution and 300 μL of methanol were added, followed by mixing for about 30 seconds for pretreatment. The tube was centrifuged at 3,000×g (4° C.) for about 5 minutes, and the supernatant was taken and transferred to an LC vial and injected into the instrument. Then, the concentration of the compound in mouse plasma was quantified by applying a previously validated assay. For pharmacokinetic parameters, the program WinNonlin 5.2 (Pharsight, USA) was used. AUC0-t, AUC0-∞, Cmax, Tmax, and t1/2 were calculated by Noncompartment modeling (best fit). The pharmacokinetic parameter results were expressed as the mean (Mean) and standard deviation (SD), and were statistically processed using the SPSS program (Statistical Package for the Social Sciences, 10.0K, USA).

[3] = system: EGFR^del19+T790M+C797S; assay: EGFR protein degradation test (Western blot) in Ba/F3 cells expressing mutant EGFR del19+T790M+C797S (DTC); assay type: cell-based; conditions: compounds at 0.1 μM and 1 μM, 24 hours, Western blot with EGFR antibody
Outline: as §1

[4] = 69, 70, 75, 78, 82 vs compounds 53 and 65

T1 sequence (P00533 25-1210 T790M/C797S/L858R): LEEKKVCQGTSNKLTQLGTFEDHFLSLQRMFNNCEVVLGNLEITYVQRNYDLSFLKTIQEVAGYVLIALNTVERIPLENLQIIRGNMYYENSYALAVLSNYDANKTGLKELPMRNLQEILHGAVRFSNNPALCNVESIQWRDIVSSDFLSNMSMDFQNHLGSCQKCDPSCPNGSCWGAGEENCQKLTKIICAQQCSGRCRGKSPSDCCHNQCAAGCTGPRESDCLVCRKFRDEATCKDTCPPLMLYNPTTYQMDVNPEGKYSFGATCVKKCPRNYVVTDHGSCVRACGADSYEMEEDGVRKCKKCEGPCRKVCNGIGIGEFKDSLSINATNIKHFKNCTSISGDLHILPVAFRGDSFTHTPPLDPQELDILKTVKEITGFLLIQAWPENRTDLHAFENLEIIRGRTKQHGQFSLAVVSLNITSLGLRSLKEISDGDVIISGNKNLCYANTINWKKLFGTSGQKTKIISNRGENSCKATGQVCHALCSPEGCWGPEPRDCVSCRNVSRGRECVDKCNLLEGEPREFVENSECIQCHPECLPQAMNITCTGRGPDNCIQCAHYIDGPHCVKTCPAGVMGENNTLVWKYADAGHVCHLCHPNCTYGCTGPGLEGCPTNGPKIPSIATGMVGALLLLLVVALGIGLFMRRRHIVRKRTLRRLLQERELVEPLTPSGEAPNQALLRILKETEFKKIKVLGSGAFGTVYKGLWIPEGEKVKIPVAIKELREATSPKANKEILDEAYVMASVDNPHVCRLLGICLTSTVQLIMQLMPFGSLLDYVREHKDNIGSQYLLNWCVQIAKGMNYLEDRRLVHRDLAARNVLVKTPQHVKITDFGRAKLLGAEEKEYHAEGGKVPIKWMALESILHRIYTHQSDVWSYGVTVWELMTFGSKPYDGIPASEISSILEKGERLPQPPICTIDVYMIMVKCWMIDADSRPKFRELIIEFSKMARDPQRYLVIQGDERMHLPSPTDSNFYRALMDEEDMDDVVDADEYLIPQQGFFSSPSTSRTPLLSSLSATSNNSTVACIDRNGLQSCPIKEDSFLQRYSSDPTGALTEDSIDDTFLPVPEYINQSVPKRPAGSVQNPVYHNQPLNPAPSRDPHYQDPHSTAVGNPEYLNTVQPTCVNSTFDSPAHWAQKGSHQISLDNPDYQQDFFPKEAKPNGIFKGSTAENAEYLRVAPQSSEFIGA

Row | SMILES | LTC (EGFR^L858R+T790M+C797S) protein degradation [1] | half-life [2] | AUC(0-t) [2] | DTC (EGFR^del19+T790M+C797S) protein degradation [3] | AUC compared to the corresponding compounds [2, 4] | AUC compared to the corresponding compounds ([2]; 74, 76, 77, 80, 81 vs 45, 71, 51, 65, 53)
1 | COc1cc(N2CCC(N3CCN(CCNc4cccc5c4C(=O)N(C4CCC(=O)NC4=O)C5=O)CC3)CC2)ccc1Nc1ncc(Cl)c(Nc2ccccc2N(C)S(C)(=O)=O)n1 (stereo not drawn) [Compound 45, N-(2-((5-chloro-2-((4-(4-(4-(2-((2-(2,6-dioxopiperidin-3-yl)-1,3-dioxoisoindolin-4-yl)amino)ethyl)piperazin-1-yl)piperidin-1-yl)-2-methoxyphenyl)amino)pyrimidin-4-yl)amino)phenyl)-N-methylmethanesulfonamide] | ++ (Protein degradation > 80%) | 207 min | 992 ng·h/mL | ++ (Protein degradation > 80%) |  | 
2 | COc1cc(N2CCC(N3CCN(CC4CCN(c5ccc6c(c5)C(=O)N(C5CCC(=O)NC5=O)C6=O)CC4)CC3)CC2)ccc1Nc1ncc(Cl)c(Nc2ccccc2N(C)S(C)(=O)=O)n1 (stereo not drawn) [Compound 71, N-(2-((5-chloro-2-((4-(4-(4-((1-(2-(2,6-dioxopiperidin-3-yl)-1,3-dioxoisoindolin-5-yl)piperidin-4-yl)methyl)piperazin-1-yl)piperidin-1-yl)-2-methoxyphenyl)amino)pyrimidin-4-yl)amino)phenyl)-N-methylmethanesulfonamide] | ++ (Protein degradation > 80%) | 466 min | 1230 ng·h/mL | + (Protein degradation 20~80%) |  | 
3 | COc1cc(N2CCN(CC3CCN(C(=O)[C@H](C)Oc4cccc5c4C(=O)N(C4CCC(=O)NC4=O)C5=O)CC3)CC2)c(C)cc1Nc1ncc(Cl)c(Nc2ccccc2N(C)S(C)(=O)=O)n1 (stereo partly drawn) [Compound 82, N-(2-((5-chloro-2-((4-(4-((1-((2S)-2-((2-(2,6-dioxopiperidin-3-yl)-1,3-dioxoisoindolin-4-yl)oxy)propanoyl)piperidin-4-yl)methyl)piperazin-1-yl)-2-methoxy-5-methylphenyl)amino)pyrimidin-4-yl)amino)phenyl)-N-methylmethanesulfonamide] | ++ (Protein degradation > 80%) | 362 min | 366 ng·h/mL | ++ (Protein degradation > 80%) | significantly improved AUC | 
4 | COc1cc(N2CCN(CC3CCN(CC(=O)N[C@H](C(=O)N4C[C@H](O)CC4C(=O)NCc4ccc(-c5scnc5C)cc4)C(C)(C)C)CC3)CC2)ccc1Nc1ncc(Cl)c(Nc2ccccc2N(C)S(C)(=O)=O)n1 (stereo in doubt) [Compound 28, (2R,4R)-1-((S)-2-(2-(4-((4-(4-((5-chloro-4-((2-(N-methylmethylsulfonamido)phenyl)amino)pyrimidin-2-yl)amino)-3-methoxyphenyl)piperazin-1-yl)methyl)piperidin-1-yl)acetamido)-3,3-dimethylbutanoyl)-4-hydroxy-N-(4-(4-methylthiazol-5-yl)benzyl)pyrrolidin-2-carboxamide] | ++ (Protein degradation > 80%) | 374 min | 1170 ng·h/mL | ++ (Protein degradation > 80%) |  | 
5 | COc1cc(N2CCN(CC3CCN(C(=O)CNc4cccc5c4C(=O)N(C4CCC(=O)NC4=O)C5=O)CC3)CC2)c(C)cc1Nc1ncc(Cl)c(Nc2ccccc2N(C)S(C)(=O)=O)n1 (stereo not drawn) [Compound 80, N-(2-((5-chloro-2-((4-(4-((1-((2-(2,6-dioxopiperidin-3-yl)-1,3-dioxoisoindolin-4-yl)glycyl)piperidin-4-yl)methyl)piperazin-1-yl)-2-methoxy-5-methylphenyl)amino)pyrimidin-4-yl)amino)phenyl)-N-methylmethanesulfonamide] | ++ (Protein degradation > 80%) | 213 min | 1040 ng·h/mL | ++ (Protein degradation > 80%) |  | significantly improved AUC
6 | COc1cc(N2CCN(CC3CCN(C(=O)[C@H](C)Nc4cccc5c4C(=O)N(C4CCC(=O)NC4=O)C5=O)CC3)CC2)c(C)cc1Nc1ncc(Cl)c(Nc2ccccc2N(C)S(C)(=O)=O)n1 (stereo partly drawn) [Compound 75, N-(2-((5-chloro-2-((4-(4-((1-((2-(2,6-dioxopiperidin-3-yl)-1,3-dioxoisoindolin-4-yl)-L-alanyl)piperidin-4-yl)methyl)piperazin-1-yl)-2-methoxy-5-methylphenyl)amino)pyrimidin-4-yl)amino)phenyl)-N-methylmethanesulfonamide] | ++ (Protein degradation > 80%) | 169 min | 2040 ng·h/mL | ++ (Protein degradation > 80%) | significantly improved AUC | 
7 | COc1cc(N2CCC(CN3CCN(CC(=O)Nc4cccc5c4CN(C4CCC(=O)NC4=O)C5=O)CC3)CC2)ccc1Nc1ncc(Cl)c(Nc2ccccc2N(C)S(C)(=O)=O)n1 (stereo not drawn) [Compound 24, 2-(4-((1-(4-((5-chloro-4-((2-(N-methylmethylsulfonamido)phenyl)amino)pyrimidin-2-yl)amino)-3-methoxyphenyl)piperidin-4-yl)methyl)piperazin-1-yl)-N-(2-(2,6-dioxopiperidin-3-yl)-1-oxoisoindolin-4-yl)acetamide] | ++ (Protein degradation > 80%) | 744 min | 17 ng·h/mL | ++ (Protein degradation > 80%) |  | 
8 | COc1cc(N2CCN(CC3CCN(CC(=O)Nc4cccc5c4CN(C4CCC(=O)NC4=O)C5=O)CC3)CC2)ccc1Nc1ncc(Cl)c(Nc2ccccc2N(C)S(C)(=O)=O)n1 (stereo not drawn) [Compound 26, 2-(4-((4-(4-((5-chloro-4-((2-(N-methylmethylsulfonamido)phenyl)amino)pyrimidin-2-yl)amino)-3-methoxyphenyl)piperazin-1-yl)methyl)piperidin-1-yl)-N-(2-(2,6-dioxopiperidin-3-yl)-1-oxoisoindolin-4-yl)acetamide] | ++ (Protein degradation > 80%) | 557 min | 32 ng·h/mL | ++ (Protein degradation > 80%) |  | 
9 | COc1cc(N2CCC(CN3CCC(CNc4cccc5c4C(=O)N(C4CCC(=O)NC4=O)C5=O)CC3)CC2)ccc1Nc1ncc(Cl)c(Nc2ccccc2N(C)S(C)(=O)=O)n1 (stereo not drawn) [Compound 62, N-(2-((5-chloro-2-((4-(4-((4-(((2-(2,6-dioxopiperidin-3-yl)-1,3-dioxoisoindolin-4-yl)amino)methyl)piperidin-1-yl)methyl)piperidin-1-yl)-2-methoxyphenyl)amino)pyrimidin-4-yl)amino)phenyl)-N-methylmethanesulfonamide] | ++ (Protein degradation > 80%) |  |  | + (Protein degradation 20~80%) |  | 
10 | COc1cc(N2CCC(N3CCN(CC#Cc4ccc5c(c4)C(=O)N(C4CCC(=O)NC4=O)C5=O)CC3)CC2)ccc1Nc1ncc(Cl)c(Nc2ccccc2N(C)S(C)(=O)=O)n1 (stereo not drawn) [Compound 72, N-(2-((5-chloro-2-((4-(4-(4-(3-(2-(2,6-dioxopiperidin-3-yl)-1,3-dioxoisoindolin-5-yl)prop-2-yn-1-yl)piperazin-1-yl)piperidin-1-yl)-2-methoxyphenyl)amino)pyrimidin-4-yl)amino)phenyl)-N-methylmethanesulfonamide] | − (Protein degradation < 20%) |  |  | − (Protein degradation < 20%) |  | 
